In the test the test system is primary mouse oligodendrocyte precursor cells. The experiment in a line: In vitro differentiation of primary mouse OPCs (MBP/O4 immunostaining, MBP western blot). Format: cell-based. The note with it: for Relative MBP protein expression (ratio MBP to β-actin), western blot: treatment day 0, 2, 4, 6 days, compared to vehicle; for MBP protein expression (IHC), dose dependence / MBP/O4 ratio, dose dependence: Roflumilast 5, 10 μM, Gebr32a 0.5, 1, 5 μM, BPN14770 0.1-10 μM, day 6. The method, then:
FIG. 3: Inhibition of PDE4 by roflumilast induces differentiation of primary mouse oligodendrocyte precursor cells. Primary mouse oligodendrocyte precursor cells (OPCs) were isolated from p0 C57bl6 pups using the shake off method at day 0. Primary OPCs (150.000 cells/condition) were cultured and stimulated with vehicle (0.1% DMSO) or the PDE4 inhibitor Roflumilast (5 μM, or 10 μM) in 0.1% DMSO. Treatment was repeated on day 2 and day 4, applying a 40% medium change. Cells were fixated at day 6 and stained for O4, a late OPC marker and MBP, an oligodendrocyte marker.
For western blot, primary OPCs (500.000 cells/condition) were cultured and stimulated with vehicle (0.1% DMSO) or the PDE4 inhibitor Roflumilast (5 μM) in 0.1% DMSO. Treatment was repeated on day 2 and day 4, applying a 40% medium change. […] IHC Data were analyzed using a non-parametric Kruskal-Wallis test with Dunn's multiple comparisons test was performed; p<0.05=*; n=4/group. Western blot data were analyzed using a non-parametric Mann-Withney test; p<0.05; n=4/group.
FIG. 4: Inhibition of PDE4D by Gebr32a induces differentiation of primary mouse oligodendrocyte precursor cells. Primary mouse oligodendrocyte precursor cells (OPCs) were isolated from p0 C57bl6 pups using the shake off method at day 0. Primary OPCs (150.000 cells/condition) were cultured and stimulated with vehicle (0.1% DMSO) or the PDE4D inhibitor Gebr32a (0.5 μM, 1 μM or 5 μM) in 0.1% DMSO. Treatment was repeated on day 2 and day 4, applying a 40% medium change. Cells were fixated at day 6 and stained for O4, a late OPC marker and MBP, an oligodendrocyte marker.
For western blot, primary OPCs (500.000 cells/condition) were cultured and stimulated with vehicle (0.1% DMSO) or the PDE4D inhibitor Gebr32a (5 μM) in 0.1% DMSO. Treatment was repeated on day 2 and day 4, applying a 40% medium change. […] IHC Data were analyzed using a non-parametric Kruskal-Wallis test with Dunn's multiple comparisons test was performed; p<0.05=*; n=4/group. Western blot data were analyzed using a non-parametric Mann-Withney test; p<0.05; n=4/group.
FIG. 5: Inhibition of PDE4D by BPN14770 induces differentiation of primary mouse oligodendrocyte precursor cells. Primary mouse oligodendrocyte precursor cells (OPCs) were isolated from p0 C57bl6 pups using the shake off method at day 0. Primary OPCs (150.000 cells/condition) were cultured and stimulated with vehicle (PBS) or the PDE4D inhibitor BPN14770 (0.1 μM, 0.3 μM, 1 μM, 3 μM and 10 μM) in PBS. Treatment was repeated on day 2 and day 4, applying a 40% medium change. Cells were fixated at day 6 and stained for O4, a late OPC marker and MBP, an oligodendrocyte marker.
Mixed glial cultures were prepared from postnatal day 2 mouse cerebral cortices of C57BLl/6JOIaHsd animals and used to generate OPC-enriched glial cultures by separating the OPCs from the astrocyte monolayer by orbital shaking followed by purification by differential adhesion to plastic. Purified OPCs were seeded on poly-L-lysine (5 μg/ml; Sigma-Aldrich, Bornem, Belgium) coated plates or glass cover slides for staining. Isolated OPCs were plated in 24-well plates (150,000 cells/well Greiner Bio-One, Frickenhausen, Germany) for immunocytochemistry or in 6-well plates (500,000 cells/well Greiner Bio-One, Frickenhausen, Germany) for western blot analyses. OPCs were induced to differentiate for 6 days with Roflumilast (5 μM and 10 μM), Gebr32 (0.5, 1 and 5 μM) or vehicle (DMSO) in SATO-medium supplemented with 2% horse serum (Sigma-Aldrich). Treatment was repeated on day 2 and 4, applying a 40% medium change. All plates were at 37° C. and 8.5% C02.
Western blot was used to assess the total MBP production by OPC treated with roflumilast or Gebr32a compare to the vehicle group. Equal amount of protein sample was separated by 10% sodium dodecyl sulfate polyacrylamide gel electrophorese and blotted onto a PVDF membrane (GE Healthcare, Buckinghamshore, UK). […]
(In western blotting, separated proteins are transferred to a membrane and probed.)

Molecules are shown by their SMILES.

Consider two compounds from patent US20210145838A1, “SELECTIVE PDE4D INHIBITORS AGAINST DEMYELINATING DISEASES” (Universiteit Hasselt, priority 2018, published 2021).

Take `OC(CN1CCOCC1)Cn1ccc(-c2ccc(OC(F)F)c(OC3CCCC3)c2)n1` (stereo not shown) [Gebr32a]: the “MBP protein expression (IHC), dose dependence” value is reported as “dose-dependent increase” and the “MBP/O4 ratio, dose dependence” value is “dose-dependent increase”. In addition, the “Relative MBP protein expression (ratio MBP to β-actin), western blot” value (5 μM) was “three-fold increase”.

On to `O=C(Nc1c(Cl)cncc1Cl)c1ccc(OC(F)F)c(OCC2CC2)c1` [roflumilast], for which the “MBP protein expression (IHC), dose dependence” value is on record as “increased dose-dependently” and the “MBP/O4 ratio, dose dependence” value is “increased dose-dependently”. Further, the “Relative MBP protein expression, IHC” value (5 μM, fixated at day 6, compared to vehicle) is reported as “three-fold increased”. Moreover, the “Relative MBP protein expression (ratio MBP to β-actin), western blot” value (5 μM) is recorded as “three-fold increased”.
